Drawing on patent US20140357655A1, “SPIROINDOLINE DERIVATIVES AS GONADOTROPIN- RELEASING HORMONE RECEPTOR ANTAGONISTS” (Bayer Intellectual Property GmbH, priority 2012, published 2014), this text covers IC50 for 9 compounds.

The assay deals with T1, human GnRH receptor (Homo sapiens, UniProt P30968).
T1 sequence (P30968 1-328): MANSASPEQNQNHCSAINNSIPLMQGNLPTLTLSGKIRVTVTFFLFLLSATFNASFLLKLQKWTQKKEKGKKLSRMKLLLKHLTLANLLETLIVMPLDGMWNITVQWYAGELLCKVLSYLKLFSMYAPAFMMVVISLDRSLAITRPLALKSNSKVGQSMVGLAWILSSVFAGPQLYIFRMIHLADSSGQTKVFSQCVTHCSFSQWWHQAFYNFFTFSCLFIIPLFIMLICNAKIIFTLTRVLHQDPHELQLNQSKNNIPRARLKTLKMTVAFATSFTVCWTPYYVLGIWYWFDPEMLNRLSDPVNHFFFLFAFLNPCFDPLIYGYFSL
Kind of assay: IP-One HTRF assay with buserelin (at EC80) stimulation. The format is cell-based. Conditions: CHO cells stably expressing human GnRH receptor, read-out: Potency in IP-One HTRF assay, given as IC50. In short, it runs like this: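 Ten-point duplicate titrations (20 μM to 1 nM) were fitted by 4-parameter model to normalized 665/620 nm HTRF ratios, 0% = no compound, 100% = no agonist. Assay measured IP1 accumulation in human GnRH-R CHO cells stimulated 1 h at 37° C with EC80 buserelin, then lysed 1 h at 22° C.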
For orientation: Time-resolved FRET reads energy transfer from a long-lived donor to a nearby acceptor.

For the compound `CN(C)C(=NS(=O)(=O)c1cccc(NC(=O)c2ccc3c(c2)C2(CCS(=O)(=O)CC2)C(C2CC2)N3S(=O)(=O)c2ccc(F)cc2)c1)N(C)C` (stereo not drawn) [Example 64, N-(3-{[bis(dimethylamino)methylidene]sulfamoyl}phenyl)-2-cyclopropyl-1-[(4-fluorophenyl)sulfonyl]-1,2,2′,3′,5′,6′-hexahydrospiro[indole-3,4′-thiopyran]-5-carboxamide 1′,1′-dioxide], the IC50 came out at 9.3 nM.
As to `O=C(NCc1ccc(C(F)(F)F)cn1)c1ccc2c(c1)C1(CCS(=O)(=O)CC1)C(C1CC1)N2S(=O)(=O)c1ccc(F)cc1` (stereo not drawn) [Example 65, 2-cyclopropyl-1-[(4-fluorophenyl)sulfonyl]-N-{[5-(trifluoromethyl)pyridin-2-yl]methyl}-1,2,2′,3′,5′,6′-hexahydrospiro[indole-3,4′-thiopyran]-5-carboxamide 1′,1′-dioxide], the 50% inhibitory concentration (IC50) was 479 nM.
Turning to `Cc1cc(NS(=O)(=O)c2cccc(NC(=O)c3ccc4c(c3)C3(CCS(=O)(=O)CC3)C(C3CC3)N4S(=O)(=O)c3ccc(F)cc3)c2)no1` (stereo not drawn) [Example 66, 2-cyclopropyl-1-[(4-fluorophenyl)sulfonyl]-N-{3-[(5-methyl-1,2-oxazol-3-yl)sulfamoyl]phenyl}-1,2,2′,3′,5′,6′-hexahydrospiro[indole-3,4′-thiopyran]-5-carboxamide 1′,1′-dioxide], the IC50 turned out to be 177 nM.
Under `O=C(NCc1ccccc1C(F)F)c1ccc2c(c1)C1(CCS(=O)(=O)CC1)C(C1CC1)N2S(=O)(=O)c1ccc(F)cc1` (stereo not drawn) [Example 68, 2-cyclopropyl-N-[2-(difluoromethyl)benzyl]-1-[(4-fluorophenyl)sulfonyl]-1,2,2′,3′,5′,6′-hexahydrospiro[indole-3,4′-thiopyran]-5-carboxamide 1′,1′-dioxide] stands 4.5 nM.
As for `O=C(NCc1ccccc1O)c1ccc2c(c1)C1(CCS(=O)(=O)CC1)C(C1CC1)N2S(=O)(=O)c1ccc(F)cc1` (stereo not drawn) [Example 69, 2-cyclopropyl-1-[(4-fluorophenyl)sulfonyl]-N-(2-hydroxybenzyl)-1,2,2′,3′,5′,6′-hexahydrospiro[indole-3,4′-thiopyran]-5-carboxamide 1′,1′-dioxide], the IC50 was 320 nM.
Under `N#Cc1ccc(S(=O)(=O)N2c3ccc(C(=O)NCc4ncccc4Cl)cc3C3(CCS(=O)(=O)CC3)C2C2CC2)cc1` (stereo not drawn) [Example 70, N-[(3-chloropyridin-2-yl)methyl]-1-[(4-cyanophenyl)sulfonyl]-2-cyclopropyl-1,2,2′,3′,5′,6′-hexahydrospiro[indole-3,4′-thiopyran]-5-carboxamide 1′,1′-dioxide] stands 63 nM; under `N#Cc1ccc(S(=O)(=O)N2c3ccc(C(=O)Nc4cncc(Cl)c4)cc3C3(CCS(=O)(=O)CC3)C2C2CC2)cc1` (stereo not drawn) [Example 71, N-(5-chloropyridin-3-yl)-1-[(4-cyanophenyl)sulfonyl]-2-cyclopropyl-1,2,2′,3′,5′,6′-hexahydrospiro[indole-3,4′-thiopyran]-5-carboxamide 1′,1′-dioxide], 52 nM; under `N#Cc1ccc(S(=O)(=O)N2c3ccc(C(=O)NCc4ccccc4C(F)(F)F)cc3C3(CCS(=O)(=O)CC3)C2C2CC2)cc1` (stereo not drawn) [Example 72, 1-[(4-cyanophenyl)sulfonyl]-2-cyclopropyl-N-[2-(trifluoromethyl)benzyl]-1,2,2′,3′,5′,6′-hexahydrospiro[indole-3,4′-thiopyran]-5-carboxamide 1′,1′-dioxide], 13 nM.
Under `N#Cc1ccc(S(=O)(=O)N2c3ccc(C(=O)Nc4ncco4)cc3C3(CCS(=O)(=O)CC3)C2C2CC2)cc1` (stereo not drawn) [Example 73, 1-[(4-cyanophenyl)sulfonyl]-2-cyclopropyl-N-(1,3-oxazol-2-yl)-1,2,2′,3′,5′,6′-hexahydrospiro[indole-3,4′-thiopyran]-5-carboxamide 1′,1′-dioxide] stands 130 nM.

For orientation: IC50 means the concentration that gives 50% inhibition.
